Columns and labels:
[1] = test system: CYP3A4/5; assay: CYP inhibition in liver microsomes (midazolam); conditions: human, microsomes, pH 7.4
Description: (§1) A liver microsome working solution (20 mg/mL) contained potassium phosphate buffer (0.1 M, pH 7.4), hepatic microsomes and marker substrate solution, which phenacetin, diclofenic acid, S-mephenytoinwer, dextromethorphan, midazolam, coumarin and chlorzoxazone used as substrates for […], CYP2C9, CYP2C19, CYP2D6, CYP3A4/5, CYP2A6 and CYP2E1, respectively. In brief, 238.5 µL of liver microsome working solution was placed in a 1 mL EP tube. […] The reaction was started by injecting NADPH (1 mM), and the resulting mixture was incubated at 37 °C for 10 min. After centrifuging at 4000 rpm for 15 min, the supernatant was transferred and analyzed using LC-MS/MS to detect the corresponding metabolites. Each incubation was conducted in triplicate (n = 3).
(§2) An API 4000 LC/tandem mass spectrometry was used to analyze the concentration of metabolites of various chemical agents using a validated mode. An Atlantis T3 column (2.1 mm × 50 mm, 5 μm) was utilized, employing mobile phases consisting of a 0.1% formic acid solution (A) and a 0.1% acetonitrile formate solution (B). […] As for the detection of CYP 2E1 metabolite, the Flow composition was as follows: 0–0.30 min, 10% B; 0.30–1.30 min, 10–55% B; 1.30–1.50 min, 55–95% B; 1.50–2.00 min, 95% B; 2.00–2.01 min, 95–10% B; the low rate was 0.85 mL/min. ESI was conducted in positive ion mode. MRM was utilized to quantify each metabolite, detecting the following transitions: m/z 152.1/110 for acetaminophen, 312.1/230.0 for 4′-Hydroxydiclofenac, 235.0/150.0 for 4′-hydroxymephentoin, 258.2/199.1 for Dextrorphan, 342.1/203.0 for 1′-hydroxymidazolam, 161.1/133.1 for hydroxycoumarin, and 184.0/120.0 for 6-hydroxyclozoxadone.

[2] = molecular target: T1, CYP1A2 (Homo sapiens, UniProt P05177); assay: CYP inhibition in liver microsomes (phenacetin); conditions: CYP 1A2, marker substrate phenacetin
T1 sequence (P05177 1-516): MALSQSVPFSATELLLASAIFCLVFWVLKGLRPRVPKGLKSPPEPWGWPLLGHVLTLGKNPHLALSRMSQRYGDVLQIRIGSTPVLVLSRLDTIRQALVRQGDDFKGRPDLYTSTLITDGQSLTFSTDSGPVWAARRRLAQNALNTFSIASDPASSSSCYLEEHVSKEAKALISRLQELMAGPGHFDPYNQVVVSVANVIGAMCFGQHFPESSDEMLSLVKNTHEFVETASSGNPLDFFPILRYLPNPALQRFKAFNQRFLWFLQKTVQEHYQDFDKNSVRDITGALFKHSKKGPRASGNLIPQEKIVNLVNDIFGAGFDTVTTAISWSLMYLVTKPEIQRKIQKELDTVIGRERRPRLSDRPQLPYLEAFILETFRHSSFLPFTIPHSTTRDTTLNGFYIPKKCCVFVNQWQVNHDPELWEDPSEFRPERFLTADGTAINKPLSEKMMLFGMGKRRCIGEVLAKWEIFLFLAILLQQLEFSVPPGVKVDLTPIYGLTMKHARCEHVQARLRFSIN
Description: as §1, §2

[3] = molecular target: T2, CYP2A6 (Homo sapiens, UniProt P11509); assay: CYP inhibition in liver microsomes (coumarin); conditions: CYP 2A6; marker substrate coumarin; liver microsomes
T2 sequence (P11509 1-494): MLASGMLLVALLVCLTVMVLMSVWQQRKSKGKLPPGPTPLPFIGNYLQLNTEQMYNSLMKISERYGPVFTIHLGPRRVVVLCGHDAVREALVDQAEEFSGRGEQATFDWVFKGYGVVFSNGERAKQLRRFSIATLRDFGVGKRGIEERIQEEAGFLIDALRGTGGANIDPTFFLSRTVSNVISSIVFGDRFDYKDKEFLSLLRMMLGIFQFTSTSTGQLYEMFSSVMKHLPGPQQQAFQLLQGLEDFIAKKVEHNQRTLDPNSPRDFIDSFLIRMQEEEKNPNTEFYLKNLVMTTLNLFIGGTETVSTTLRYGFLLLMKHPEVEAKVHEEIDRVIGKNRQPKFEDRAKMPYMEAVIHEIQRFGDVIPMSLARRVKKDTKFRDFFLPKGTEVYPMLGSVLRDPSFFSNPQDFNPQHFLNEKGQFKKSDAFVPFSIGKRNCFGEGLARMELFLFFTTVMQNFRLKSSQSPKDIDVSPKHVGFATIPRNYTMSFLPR
Description: as §1, §2

[4] = Stereoselective pharmacokinetics in rat liver tissue; type: in vivo, Sprague–Dawley rats; conditions: rat liver tissue; i.g. 40 mg/kg racemate, within 24 h
Description: (§3) Forty-two rats were divided randomly into seven groups (6 rats per time point at 0.5, 1, 2, 4, 8, 12, and 24 h) and were orally administered farrerol racemate at a dose of 40 mg/kg. Rats from each group were euthanized, and kidney and liver tissues were subsequently obtained. After washing three times using 0.9% sodium chloride solution, the attached blood and fat tissues were removed. Afterward, 0.5 g of the precisely weighed liver and kidney tissues were added to 1 mL 0.9% sodium chloride solution and homogenized in an ice bath. Subsequently, 150 µL of supernatant was transferred into a 2.0 mL EP tube for pre-treatment, in the same way as the pretreatment of plasma samples (see Section 3.4.1).
(§4) Stereoselective chromatographic analysis of farrerol enantiomers was conducted utilizing an ACQUITY UPLC I-Class UPLC system (Waters, Milford, MA, USA), which is equipped with a quaternary pump and an autosampler. The chiral separation was carried out employing a Chiralpak OJ-RH column (250 mm × 4.6 mm, 5 μm), which was obtained from Daicel Chemical Industries (Shanghai, China). The mobile phase consisted of ACN-H2O (60:40, v/v), and the constant flow rate was 0.5 mL/min. The column temperature was set at 25 °C, and the injection volume was 10 μL.
(§5) Mass detection was conducted using a triple quadrupole mass spectrometer (Waters Co., USA) equipped with an electrospray ionization (ESI) source. The detection of enantiomers and internal standards (IS) was carried out in multiple reaction monitoring (MRM) mode utilizing negative ionization. The m/z 299→179 for enantiomers and m/z 267→252 for IS were selected as detecting ions for quantitation. The collision energies (CE) were established at 22 eV and 20 eV, respectively. The primary mass spectrometry (MS) parameters were configured as follows: capillary voltage was set to 3.5 kV, ion source temperature was maintained at 150 °C, desolvation gas flow rate was 800 L/h, and the cone voltage (CV) was adjusted to 1.3 V.
(§6) Pharmacokinetic analysis was conducted utilizing the Drug and Statistics (DAS) 2.0 software provided by the Chinese Pharmacological Society. To assess the differences in pharmacokinetic parameters, the IC50 values of the evaluated CYP enzymes and the permeability coefficients between the two farrerol enantiomers, paired sample t-tests and independent sample t-tests were performed. Statistical significance was defined as * p < 0.05 and ** p < 0.01. All results are presented as mean values ± standard deviation (SD).

[5] = Stereoselective pharmacokinetics in rat plasma; type: in vivo, Sprague–Dawley rats
Description: The pharmacokinetic data were optimally characterized by a noncompartmental model. The mean concentration-time profiles for the farrerol enantiomers are illustrated in Figure 3, along with the corresponding key pharmacokinetic parameters presented in Table 2.
Twenty-five rats were randomly divided into five experimental groups (A, B, C, D, and E). Groups A and B received farrerol racemate via intragastric administration at doses of 150 mg/kg and 75 mg/kg, respectively. Group C was administered 4 mg/kg of farrerol racemate through caudal intravenous administration. […] Blood samples (300 μL) were obtained from the orbital venous plexus into heparinized tubes at various time points: 0.25, 0.5, 1, 2, 3, 5, 7, 9, 12, and 24 h following gavage administration, and at 0.083, 0.167, 0.25, 0.5, 1, 1.5, 2, 2.5, 3, and 5 h post-intravenous administration. Plasma was separated by centrifugation (3000 rpm, 10 min) and stored at −80 °C until analysis.
A total of 150 μL of plasma and 50 μL of the internal standard solution were added to a 1.5 mL EP tube and mixed using a vortex for 30 s. Subsequently, 500 μL of ether was introduced, and the mixture was vortexed for 5 min. Following centrifugation at 10,000 rpm for 10 min, the resulting organic layer was carefully transferred to a separate tube. Each sample underwent two extraction processes. The resulting ether layer was then evaporated to dryness using a continuous air stream at room temperature. A 250 μL aliquot of methanol was employed to re-dissolve the residue, utilizing vortex mixing for 2 min. Following centrifugation at 14,000 rpm for 10 min, the supernatant was subsequently injected into the HPLC-MS system for analysis.
as §4, §5, §6

[6] = Stereoselective pharmacokinetics in rat kidney tissue; type: in vivo, Sprague–Dawley rats; conditions: rat kidney tissue; i.g. 40 mg/kg racemate, within 24 h
Description: as §3, §4, §5, §6

[7] = molecular target: CYP2C9 (Homo sapiens, UniProt P11712); assay: CYP inhibition in liver microsomes (diclofenac); conditions: CYP 2C9, marker substrate diclofenac
Description: as §1, with “After centrifuging at 4000 rpm for 15 min, the supernatant was transferred and analyzed using LC-MS/MS to detect the corresponding metabolites.” left out
An API 4000 LC/tandem mass spectrometry was used to analyze the concentration of metabolites of various chemical agents using a validated mode. An Atlantis T3 column (2.1 mm × 50 mm, 5 μm) was utilized, employing mobile phases consisting of a 0.1% formic acid solution (A) and a 0.1% acetonitrile formate solution (B). […] ESI was conducted in positive ion mode.

Chain of CYP2C9 (P11712 whole entry): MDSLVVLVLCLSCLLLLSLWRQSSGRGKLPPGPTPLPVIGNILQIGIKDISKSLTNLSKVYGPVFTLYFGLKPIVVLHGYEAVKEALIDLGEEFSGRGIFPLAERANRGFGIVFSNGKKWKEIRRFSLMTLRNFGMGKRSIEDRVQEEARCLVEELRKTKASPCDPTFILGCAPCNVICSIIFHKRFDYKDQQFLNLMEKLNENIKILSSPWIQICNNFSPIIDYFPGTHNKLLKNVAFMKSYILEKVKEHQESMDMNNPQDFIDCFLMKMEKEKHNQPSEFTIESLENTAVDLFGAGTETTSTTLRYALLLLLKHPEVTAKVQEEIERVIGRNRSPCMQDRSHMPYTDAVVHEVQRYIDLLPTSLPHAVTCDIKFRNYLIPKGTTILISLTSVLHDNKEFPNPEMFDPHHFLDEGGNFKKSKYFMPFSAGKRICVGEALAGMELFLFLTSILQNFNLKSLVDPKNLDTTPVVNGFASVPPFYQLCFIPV

Compound: CC(=O)N1CCN(c2ccc(OCC3COC(Cn4ccnc4)(c4ccc(Cl)cc4Cl)O3)cc2)CC1 (stereo not drawn) [ketoconazole, reference compound]
- IC50 at 10 min [1]: 10.4 nM

Compound: O=c1cc(-c2ccccc2)oc2ccc3ccccc3c12 [β-naphthoflavone, reference compound]
- IC50 [2]: 129 nM

Compound: N[C@@H]1C[C@H]1c1ccccc1 (racemic) [Tranylcypromine, reference compound]
- IC50 [3]: 383 nM

Compound: Cc1c(O)c(C)c2c(c1O)C(=O)CC(c1ccc(O)cc1)O2 (racemic) [racemic farrerol, 2,3-dihydro-5,7-dihydroxy-2-(4-hydroxyphenyl)-6,8-dimethyl-4-benzopyrone]
- enantiomeric fraction (EF) = E(+)/(E(+)+E(−)) [4]: less than 0.5
- enantiomeric fraction (EF) = E(+)/(E(+)+E(−)) ([5]; intravenous administration of racemate): around 0.7
- enantiomeric fraction (EF) = E(+)/(E(+)+E(−)) ([5]; oral administration of racemate (all doses)): greater than 0.6
- enantiomeric fraction (EF) = E(+)/(E(+)+E(−)) ([5]; oral dose of 75 mg/kg, approximately 1.5 to 24 h): around 0.8
- enantiomeric fraction (EF) = E(+)/(E(+)+E(−)) [6]: less than 0.5

Compound: Nc1ccc(S(=O)(=O)Nc2ccnn2-c2ccccc2)cc1 [sulfaphenazole, reference compound]
- IC50 [7]: 219 nM
